How the values were obtained:
Conditions in all cases: compound 10.0 µM
[1] = target: CAMK2A or CAMK2B or CAMK2D or CAMK2G (human) (UniProt Q13555+Q13557+Q9UQM7+Q13554)
[2] = target: INSR (human) (UniProt P06213)
[3] = target: PAK2 (human) (UniProt Q13177)
[4] = target: RPS6KB1 (human) (UniProt P23443)
[5] = target: PIM2 (human) (UniProt Q9P1W9)
[6] = target: ABL1 (human) (UniProt P00519)
[7] = target: AKT1 (human) (UniProt P31749)
[8] = target: CAMK4 (human) (UniProt Q16566)
[9] = target: DYRK1A (human) (UniProt Q13627)
[10] = target: FGFR1 (human) (UniProt P11362)
[11] = target: IGF1R (human) (UniProt P08069)
Sequence of IGF1R (human) (P08069 whole entry, looked up): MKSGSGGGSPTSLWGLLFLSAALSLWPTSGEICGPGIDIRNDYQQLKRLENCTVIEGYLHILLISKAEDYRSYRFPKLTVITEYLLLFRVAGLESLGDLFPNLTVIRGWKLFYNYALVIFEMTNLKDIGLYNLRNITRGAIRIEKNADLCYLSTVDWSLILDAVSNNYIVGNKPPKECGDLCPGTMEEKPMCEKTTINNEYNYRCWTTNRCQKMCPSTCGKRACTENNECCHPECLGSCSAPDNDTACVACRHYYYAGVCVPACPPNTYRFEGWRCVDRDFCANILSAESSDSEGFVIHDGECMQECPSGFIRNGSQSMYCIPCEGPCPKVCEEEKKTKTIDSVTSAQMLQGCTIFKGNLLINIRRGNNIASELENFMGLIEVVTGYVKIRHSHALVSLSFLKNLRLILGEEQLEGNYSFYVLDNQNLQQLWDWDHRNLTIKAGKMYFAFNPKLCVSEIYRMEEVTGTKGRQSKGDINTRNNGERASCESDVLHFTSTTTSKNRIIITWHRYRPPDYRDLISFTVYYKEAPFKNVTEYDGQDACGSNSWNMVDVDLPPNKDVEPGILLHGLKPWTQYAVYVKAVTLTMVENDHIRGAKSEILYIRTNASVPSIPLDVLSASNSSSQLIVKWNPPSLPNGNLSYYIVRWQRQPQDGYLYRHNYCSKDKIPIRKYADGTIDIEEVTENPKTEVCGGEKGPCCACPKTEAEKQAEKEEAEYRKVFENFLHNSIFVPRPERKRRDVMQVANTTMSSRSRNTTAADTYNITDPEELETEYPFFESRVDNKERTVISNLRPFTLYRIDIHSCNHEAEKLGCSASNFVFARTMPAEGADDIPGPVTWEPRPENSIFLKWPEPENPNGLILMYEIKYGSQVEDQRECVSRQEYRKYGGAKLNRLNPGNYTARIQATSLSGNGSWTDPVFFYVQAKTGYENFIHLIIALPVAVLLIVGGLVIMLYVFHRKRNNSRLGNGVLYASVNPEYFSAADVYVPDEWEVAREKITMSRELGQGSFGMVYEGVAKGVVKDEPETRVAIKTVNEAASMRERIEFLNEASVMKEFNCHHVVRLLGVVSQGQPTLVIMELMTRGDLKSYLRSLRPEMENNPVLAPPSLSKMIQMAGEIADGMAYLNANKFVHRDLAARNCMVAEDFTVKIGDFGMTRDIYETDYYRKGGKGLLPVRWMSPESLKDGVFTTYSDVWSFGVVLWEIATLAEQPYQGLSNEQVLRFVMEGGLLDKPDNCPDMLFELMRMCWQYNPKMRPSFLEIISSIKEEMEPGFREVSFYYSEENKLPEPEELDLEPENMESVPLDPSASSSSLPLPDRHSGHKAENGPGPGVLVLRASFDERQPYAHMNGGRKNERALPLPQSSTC

[12] = target: KDR (human) (UniProt P35968)
[13] = target: MAP3K7 (human) (UniProt O43318)
[14] = target: MAP4K4 (human) (UniProt O95819)
[15] = target: MARK1 (human) (UniProt Q9P0L2)
[16] = target: MET (human) (UniProt P08581)
[17] = target: PRKG1 (human) (UniProt Q13976)
[18] = target: SGK1 (human) (UniProt O00141)
[19] = target: CHEK1 (human) (UniProt O14757)
[20] = target: MAPKAPK5 (human) (UniProt Q8IW41)

Sequence of CAMK2A or CAMK2B or CAMK2D or CAMK2G (human) (Q13554 whole entry, looked up): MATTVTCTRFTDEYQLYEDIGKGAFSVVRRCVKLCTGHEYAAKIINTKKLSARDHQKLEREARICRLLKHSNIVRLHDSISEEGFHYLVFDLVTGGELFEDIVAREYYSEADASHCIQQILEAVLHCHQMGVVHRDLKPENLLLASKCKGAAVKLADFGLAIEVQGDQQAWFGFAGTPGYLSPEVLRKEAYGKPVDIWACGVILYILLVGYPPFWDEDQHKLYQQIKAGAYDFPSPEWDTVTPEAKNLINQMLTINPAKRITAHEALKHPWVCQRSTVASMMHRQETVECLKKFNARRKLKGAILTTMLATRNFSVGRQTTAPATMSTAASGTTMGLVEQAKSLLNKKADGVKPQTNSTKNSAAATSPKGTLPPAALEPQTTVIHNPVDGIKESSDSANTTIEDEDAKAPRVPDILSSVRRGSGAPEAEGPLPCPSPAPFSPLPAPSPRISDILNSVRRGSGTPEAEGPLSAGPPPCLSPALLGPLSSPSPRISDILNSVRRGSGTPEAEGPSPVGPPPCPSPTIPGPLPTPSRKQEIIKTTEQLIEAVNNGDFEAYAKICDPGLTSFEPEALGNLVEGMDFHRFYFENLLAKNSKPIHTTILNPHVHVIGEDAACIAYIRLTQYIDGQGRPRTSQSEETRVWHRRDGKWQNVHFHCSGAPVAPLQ
Sequence of CAMK2A or CAMK2B or CAMK2D or CAMK2G (human) (Q13555 whole entry, looked up): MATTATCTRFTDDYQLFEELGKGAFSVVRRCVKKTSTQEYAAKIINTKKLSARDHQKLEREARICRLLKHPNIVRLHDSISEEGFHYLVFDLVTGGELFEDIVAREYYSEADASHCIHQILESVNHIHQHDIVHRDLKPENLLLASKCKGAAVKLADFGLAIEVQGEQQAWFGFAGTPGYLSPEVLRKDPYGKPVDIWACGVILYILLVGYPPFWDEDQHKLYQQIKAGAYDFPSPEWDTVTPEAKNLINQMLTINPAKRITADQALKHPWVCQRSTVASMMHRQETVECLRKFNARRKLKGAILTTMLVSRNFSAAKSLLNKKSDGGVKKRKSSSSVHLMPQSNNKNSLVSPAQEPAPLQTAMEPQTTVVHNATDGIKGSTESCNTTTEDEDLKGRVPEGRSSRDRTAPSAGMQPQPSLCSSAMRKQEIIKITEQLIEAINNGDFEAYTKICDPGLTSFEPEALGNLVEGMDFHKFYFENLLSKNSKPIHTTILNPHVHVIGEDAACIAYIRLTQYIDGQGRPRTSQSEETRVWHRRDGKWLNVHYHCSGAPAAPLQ
Sequence of CAMK2A or CAMK2B or CAMK2D or CAMK2G (human) (Q13557 whole entry, looked up): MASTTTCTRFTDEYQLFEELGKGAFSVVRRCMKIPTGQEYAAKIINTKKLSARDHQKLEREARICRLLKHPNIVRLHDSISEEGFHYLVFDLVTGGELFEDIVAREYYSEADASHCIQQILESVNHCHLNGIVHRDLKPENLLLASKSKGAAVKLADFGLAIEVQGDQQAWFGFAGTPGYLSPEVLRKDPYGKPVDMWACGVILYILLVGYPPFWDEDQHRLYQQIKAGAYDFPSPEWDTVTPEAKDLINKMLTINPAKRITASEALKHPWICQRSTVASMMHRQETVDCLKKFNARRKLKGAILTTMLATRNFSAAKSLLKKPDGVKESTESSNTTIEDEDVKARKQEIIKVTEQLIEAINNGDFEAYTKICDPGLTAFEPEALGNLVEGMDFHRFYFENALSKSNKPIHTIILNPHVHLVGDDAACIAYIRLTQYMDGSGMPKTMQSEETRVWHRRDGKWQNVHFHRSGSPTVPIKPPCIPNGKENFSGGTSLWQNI
Sequence of CAMK2A or CAMK2B or CAMK2D or CAMK2G (human) (Q9UQM7 whole entry, looked up): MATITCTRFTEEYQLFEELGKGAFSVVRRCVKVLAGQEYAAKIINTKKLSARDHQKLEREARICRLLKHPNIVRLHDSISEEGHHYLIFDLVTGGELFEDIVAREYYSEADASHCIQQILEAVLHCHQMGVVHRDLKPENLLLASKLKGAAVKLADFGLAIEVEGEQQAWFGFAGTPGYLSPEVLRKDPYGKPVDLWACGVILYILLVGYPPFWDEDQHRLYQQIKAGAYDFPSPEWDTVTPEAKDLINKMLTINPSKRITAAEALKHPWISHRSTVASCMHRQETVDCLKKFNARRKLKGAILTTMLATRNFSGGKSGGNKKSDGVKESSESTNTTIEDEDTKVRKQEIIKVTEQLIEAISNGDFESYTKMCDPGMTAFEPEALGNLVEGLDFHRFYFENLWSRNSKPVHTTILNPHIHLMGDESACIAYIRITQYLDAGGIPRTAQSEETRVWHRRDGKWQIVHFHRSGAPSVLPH
Sequence of RPS6KB1 (human) (P23443 whole entry, looked up): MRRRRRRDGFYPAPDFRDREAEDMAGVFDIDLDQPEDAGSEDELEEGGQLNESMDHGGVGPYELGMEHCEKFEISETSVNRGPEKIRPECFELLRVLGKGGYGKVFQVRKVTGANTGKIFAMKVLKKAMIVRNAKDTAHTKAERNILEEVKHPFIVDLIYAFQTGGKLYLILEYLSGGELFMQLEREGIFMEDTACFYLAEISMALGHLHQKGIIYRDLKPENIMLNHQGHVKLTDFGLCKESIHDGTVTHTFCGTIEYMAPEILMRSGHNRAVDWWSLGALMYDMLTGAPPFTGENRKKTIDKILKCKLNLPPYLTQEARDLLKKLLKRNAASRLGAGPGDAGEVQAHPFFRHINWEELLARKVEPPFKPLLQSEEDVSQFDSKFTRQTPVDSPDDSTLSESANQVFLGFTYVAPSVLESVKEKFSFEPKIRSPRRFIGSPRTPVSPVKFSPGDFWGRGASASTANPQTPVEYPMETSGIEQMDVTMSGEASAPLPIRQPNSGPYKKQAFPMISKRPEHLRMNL
Sequence of CAMK4 (human) (Q16566 whole entry, looked up): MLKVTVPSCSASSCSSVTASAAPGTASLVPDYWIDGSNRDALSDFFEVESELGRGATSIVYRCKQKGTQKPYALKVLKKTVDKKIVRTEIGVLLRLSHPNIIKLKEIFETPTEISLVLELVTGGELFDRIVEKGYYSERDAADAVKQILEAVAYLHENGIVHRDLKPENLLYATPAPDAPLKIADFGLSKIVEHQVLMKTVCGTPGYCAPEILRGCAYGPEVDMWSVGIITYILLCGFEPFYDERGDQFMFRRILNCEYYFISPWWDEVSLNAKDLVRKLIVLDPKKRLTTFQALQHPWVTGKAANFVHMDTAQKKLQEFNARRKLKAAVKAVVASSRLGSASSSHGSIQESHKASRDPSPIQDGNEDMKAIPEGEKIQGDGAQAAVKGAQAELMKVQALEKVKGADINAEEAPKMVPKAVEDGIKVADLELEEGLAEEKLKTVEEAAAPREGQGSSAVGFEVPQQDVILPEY
Sequence of PIM2 (human) (Q9P1W9 whole entry, looked up): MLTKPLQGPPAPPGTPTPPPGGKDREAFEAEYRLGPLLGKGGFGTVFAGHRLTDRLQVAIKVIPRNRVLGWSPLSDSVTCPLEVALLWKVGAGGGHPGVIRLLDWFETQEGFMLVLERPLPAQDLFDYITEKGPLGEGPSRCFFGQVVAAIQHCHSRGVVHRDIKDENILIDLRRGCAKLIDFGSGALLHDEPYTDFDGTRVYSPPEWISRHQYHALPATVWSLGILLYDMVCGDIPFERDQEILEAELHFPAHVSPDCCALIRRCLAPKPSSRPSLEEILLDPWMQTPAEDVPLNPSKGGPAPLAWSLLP

Row | inhibition [1] [%] | inhibition [4] [%] | inhibition [5] [%] | inhibition [8] [%] | inhibition [11] [%] | inhibition [13] [%] | inhibition [17] [%] | Compound | further results
1 | -35 | -12 | – | – | – | – | – | CC[C@@H](NC(=O)c1c[nH]c2ncc(-c3nn(C)c4cc(Cl)ccc34)nc12)C(=O)N1CC(C#N)C1 | inhibition [2]: -11%; inhibition [3]: -29%
2 | -53 | -14 | -18 | – | – | – | – | C[C@@H](NC(=O)c1c[nH]c2ncc(-c3cn(C)c4cc(Cl)ccc34)nc12)C(=O)N1CC(C#N)C1 | –
3 | -179 | -12 | -15 | -11 | -12 | -24 | 0 | C[C@@H](NC(=O)c1c[nH]c2ncc(-c3nn(C)c4cc(Cl)ccc34)nc12)C(=O)N1CC(C#N)C1 | inhibition [6]: -13%; inhibition [7]: -11%; inhibition [9]: -13%; inhibition [10]: -11%; inhibition [12]: -18%; inhibition [14]: -17%; inhibition [15]: -11%; inhibition [16]: -15%; inhibition [18]: -17%
4 | -52 | -33 | – | -24 | -30 | -11 | – | C[C@@H](NC(=O)c1c[nH]c2ncc(-c3nn(C)c4cc(Cl)cc(F)c34)nc12)C(=O)N1CC(C#N)C1 | inhibition [19]: -28%
5 | -51 | -42 | – | – | – | – | 0 | C[C@@H](NC(=O)c1c[nH]c2ncc(-c3ncn4cc(F)cc(F)c34)nc12)C(=O)N1CC(C#N)C1 | inhibition [20]: -12%
